Measured values published in patent US12370182B2, “Bicyclic derivatives as GABAA A5 receptor modulators” (RICHTER GEDEON NYRT., priority 2018, dated 2025).

Molecular target: human recombinant GABAA α5β3γ2 receptor (Homo sapiens (Human), UniProt P18507+P31644)
Assay: Binding assay, [3H]Ro151788 displacement on membranes of HEK cells
Details: 0.5 nM [3H]Ro151788, 60 minutes at 4° C., Cheng-Prusoff; read-out: hGABAA α5 Ki
Procedure: The GABAA α5β3γ2 protein used for the receptor binding assay was derived from membranes produced from HEK cells (Millipore CYL3073) expressing the human recombinant GABAA α5β3γ2 receptor. Cells were stored and cultured in-house according to the instructions provided by the vendor (Millipor). Cell pellet was homogenized in 10 times modified Krebs Henseleit buffer (membrane preparation buffer): 20 mM Tris, 120 mM NaCl, 100 mM KCl, 25 mM CaCl2) and 25 mM MgCl2 pH=7.4 at 4° C. using Ultra Turrax (Janke&Kunkel) maximal speed for 15 seconds. The homogenate was centrifuged at 40,000 g for 30 minutes at 4° C. Supernatant was discarded and the resulting pellet was washed in membrane preparation buffer. Pellet was resuspended in membrane preparation buffer and aliquots of 1.4 mL ampulles were stored at −70° C. until use.
Receptor binding assays were performed in 96-well format in deep-well plates. For each 96-well plate one ampulle of membrane homogenate was thawed and diluted in binding buffer (50 mM Tris pH=7.4, 100 mM KCl) and 200 μL was dispensed into each well. Radioligand [^3H]Ro151788 (Perkin Elmer: NET757250UC) was prepared in binding buffer and added to each well in 50 μL volume to give final concentration of 0.5 nM. Test compounds in suitable concentration(s) were added in additional 50 μL. The final assay volume was 300 μL. Incubation was carried out for 60 minutes at 4° C. For non-specific binding 10 μM unlabeled diazepam was used. After incubation samples were filtered over UniFilter® GF/B™ using Filtermate Harvester (Perkin Elmer) and washed with 5×1 mL binding buffer. The plate was dried at 40° C. for an hour and 40 μL Microscint (Perkin Elmer) scintillation cocktail was added to each well. The plate was read in Microbeta (Perkin Elmer).
The specific radioligand binding (SB) was defined as the difference between total binding (Tot) and the non-specific binding (NSB). Results are expressed as a percent inhibition of specific binding obtained in the presence of compound of interest.
For IC50 and Ki determination a minimum of six drug concentrations in triplicate were used. […] Ki values (i.e. inhibition constants) were calculated using the Cheng-Prusoff equation Ki=IC50/[1+(L/KD)], where [L] is the radioligand concentration and KD the affinity of the labelled ligand for receptor. KD was determined from the Saturation analyses.

human recombinant GABAA α5β3γ2 receptor, sequence (P31644 32-462): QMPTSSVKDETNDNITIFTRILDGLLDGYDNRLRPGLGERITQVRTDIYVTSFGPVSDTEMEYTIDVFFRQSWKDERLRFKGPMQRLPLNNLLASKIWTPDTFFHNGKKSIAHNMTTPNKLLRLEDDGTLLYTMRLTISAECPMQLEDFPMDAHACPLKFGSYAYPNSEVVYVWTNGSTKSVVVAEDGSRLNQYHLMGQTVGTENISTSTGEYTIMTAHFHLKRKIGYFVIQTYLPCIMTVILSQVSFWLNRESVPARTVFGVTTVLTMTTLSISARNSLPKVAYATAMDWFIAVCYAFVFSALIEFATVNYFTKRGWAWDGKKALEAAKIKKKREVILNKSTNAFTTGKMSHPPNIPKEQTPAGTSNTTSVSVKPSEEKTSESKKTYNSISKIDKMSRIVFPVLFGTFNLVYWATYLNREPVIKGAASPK
human recombinant GABAA α5β3γ2 receptor, sequence (P28472 26-473 partner): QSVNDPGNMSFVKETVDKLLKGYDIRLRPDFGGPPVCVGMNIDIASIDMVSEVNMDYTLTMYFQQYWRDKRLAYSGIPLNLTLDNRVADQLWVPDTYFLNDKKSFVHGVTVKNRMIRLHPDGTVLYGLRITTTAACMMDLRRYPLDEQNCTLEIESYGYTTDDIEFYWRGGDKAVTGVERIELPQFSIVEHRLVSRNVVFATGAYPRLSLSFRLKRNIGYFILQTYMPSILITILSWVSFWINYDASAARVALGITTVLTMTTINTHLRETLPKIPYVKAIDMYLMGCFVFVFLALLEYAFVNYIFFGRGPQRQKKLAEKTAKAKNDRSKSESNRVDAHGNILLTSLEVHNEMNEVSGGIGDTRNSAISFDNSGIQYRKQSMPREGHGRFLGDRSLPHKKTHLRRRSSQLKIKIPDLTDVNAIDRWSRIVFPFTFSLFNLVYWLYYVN
human recombinant GABAA α5β3γ2 receptor, sequence (P18507 40-475): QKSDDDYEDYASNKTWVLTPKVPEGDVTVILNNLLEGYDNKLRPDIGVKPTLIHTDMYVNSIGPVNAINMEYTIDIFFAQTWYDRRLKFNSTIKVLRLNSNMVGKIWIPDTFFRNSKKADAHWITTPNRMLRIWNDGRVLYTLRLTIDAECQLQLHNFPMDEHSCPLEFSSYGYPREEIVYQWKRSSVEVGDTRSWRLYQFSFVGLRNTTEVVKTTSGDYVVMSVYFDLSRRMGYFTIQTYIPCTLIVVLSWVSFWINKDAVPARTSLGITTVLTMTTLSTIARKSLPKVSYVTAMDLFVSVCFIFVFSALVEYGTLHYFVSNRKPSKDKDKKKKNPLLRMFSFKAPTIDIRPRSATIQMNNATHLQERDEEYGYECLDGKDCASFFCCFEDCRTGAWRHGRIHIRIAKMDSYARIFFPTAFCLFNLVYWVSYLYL

| SMILES | Ki [nM] |
| --- | --- |
| CCC(=O)N1Cc2ccc(OCc3c(C)nnn3-c3ccc(F)cc3)nc2C1 [Example 52, 1-(2-{[1-(4-fluorophenyl)-4-methyl-1H-1,2,3-triazol-5-yl]methoxy}-5,7-dihydro-6H-pyrrolo[3,4-b]pyridin-6-yl)propan-1-one] | 37 |
| Cc1nnn(-c2ccc(F)cc2)c1COc1ccc2c(n1)CCN(C(=O)c1cccnc1)C2 [Example 39, 2-{[1-(4-fluorophenyl)-4-methyl-1H-1,2,3-triazol-5-yl]methoxy}-6-(pyridine-3-carbonyl)-5,6,7,8-tetrahydro-1,6-naphthyridine] | 24 |
| Cc1nnn(-c2ccc(Cl)cc2)c1COc1ccc2c(n1)CCN(C(=O)C1CCOCC1)C2 [Example 32, 2-{[1-(4-chlorophenyl)-4-methyl-1H-1,2,3-triazol-5-yl]methoxy}-6-(oxane-4-carbonyl)-5,6,7,8-tetrahydro-1,6-naphthyridine] | 22 |
| Cc1nnn(-c2ccc(F)cc2)c1COc1ccc2c(n1)CCN(C(=O)c1ccncc1)C2 [Example 25, 2-{[1-(4-fluorophenyl)-4-methyl-1H-1,2,3-triazol-5-yl]methoxy}-6-(pyridine-4-carbonyl)-5,6,7,8-tetrahydro-1,6-naphthyridine] | 29 |
| Cc1onc(-c2ccc(F)cc2)c1COc1ccc2c(n1)CCN(C(=O)c1ccn(C)c1)C2 [Example 11, 2-{[3-(4-fluorophenyl)-5-methyl-1,2-oxazol-4-yl]methoxy}-6-(1-methyl-1H-pyrrole-3-carbonyl)-5,6,7,8-tetrahydro-1,6-naphthyridine] | 11 |
| Cc1onc(-c2ccc(F)cc2)c1COc1ccc2c(n1)CCN(C(=O)C1CCC1)C2 [Example 4, 6-cyclobutanecarbonyl-2-{[3-(4-fluorophenyl)-5-methyl-1,2-oxazol-4-yl]methoxy}-5,6,7,8-tetrahydro-1,6-naphthyridine] | 16 |
| Cc1nnn(-c2ccc(Cl)cc2)c1COc1ccc2c(n1)CCN(C(=O)[C@H]1CCOC1)C2 [Example 38, 2-{[1-(4-chlorophenyl)-4-methyl-1H-1,2,3-triazol-5-yl]methoxy}-6-[(3S)-oxolane-3-carbonyl]-5,6,7,8-tetrahydro-1,6-naphthyridine] | 18 |
| Cc1onc(-c2ccc(F)cc2)c1COc1ccc2c(n1)CCN(C(=O)CCS(C)(=O)=O)C2 [Example 48, 1-(2-{[3-(4-fluorophenyl)-5-methyl-1,2-oxazol-4-yl]methoxy}-5,6,7,8-tetrahydro-1,6-naphthyridin-6-yl)-3-methanesulfonylpropan-1-one] | 33 |
| Cc1nnn(-c2ccc(F)cc2)c1COc1ccc2c(n1)CCN(C(=O)C1CC(=O)N(C)C1)C2 (stereo not drawn) [Example 21, 4-(2-{[1-(4-fluorophenyl)-4-methyl-1H-1,2,3-triazol-5-yl]methoxy}-5,6,7,8-tetrahydro-1,6-naphthyridine-6-carbonyl)-1-methylpyrrolidin-2-one] | 35 |
| Cc1onc(-c2ccc(F)cc2)c1COc1ccc2c(n1)CCN(C(=O)C1CCCO1)C2 (stereo not drawn) [Example 7, 2-{[3-(4-fluorophenyl)-5-methyl-1,2-oxazol-4-yl]methoxy}-6-(oxolane-2-carbonyl)-5,6,7,8-tetrahydro-1,6-naphthyridine] | 6.8 |
| CC(=O)N1CCc2nc(OCc3c(-c4ccc(F)cc4)noc3C)ccc2C1 [Example 1, 1-[2-{[3-(4-fluorophenyl)-5-methyl-1,2-oxazol-4-yl]methoxy}-7,8-dihydro-1,6-naphthyridin-6(5H)-yl]ethanone] | 2.8 |
| CCN1CC(C(=O)N2CCc3nc(OCc4c(C)nnn4-c4ccc(F)cc4)ccc3C2)CC1=O (stereo not drawn) [Example 43, 1-ethyl-4-(2-{[1-(4-fluorophenyl)-4-methyl-1H-1,2,3-triazol-5-yl]methoxy}-5,6,7,8-tetrahydro-1,6-naphthyridine-6-carbonyl)pyrrolidin-2-one] | 30 |
| Cc1nnn(-c2ccc(F)cc2)c1COc1ccc2c(n1)CCN(C(=O)C1CCC(=O)N(C)C1)C2 (stereo not drawn) [Example 46, 5-(2-{[1-(4-fluorophenyl)-4-methyl-1H-1,2,3-triazol-5-yl]methoxy}-5,6,7,8-tetrahydro-1,6-naphthyridine-6-carbonyl)-1-methylpiperidin-2-one] | 84 |
| COC1CCC(C(=O)N2CCc3nc(OCc4c(C)nnn4-c4ccc(F)cc4)ccc3C2)CC1 (stereo not drawn) [Example 35, 2-{[1-(4-fluorophenyl)-4-methyl-1H-1,2,3-triazol-5-yl]methoxy}-6-(4-methoxycyclohexanecarbonyl)-5,6,7,8-tetrahydro-1,6-naphthyridine] | 71 |
| Cc1nnn(-c2ccc(F)cc2)c1COc1ccc2c(n1)CCN(C(=O)c1ccno1)C2 [Example 20, 2-{[1-(4-fluorophenyl)-4-methyl-1H-1,2,3-triazol-5-yl]methoxy}-6-(1,2-oxazole-5-carbonyl)-5,6,7,8-tetrahydro-1,6-naphthyridine] | 24 |
| Cc1nnn(-c2ccc(Cl)cc2)c1COc1ccc2c(n1)CCN(C(=O)c1ccncc1)C2 [Example 33, 2-{[1-(4-chlorophenyl)-4-methyl-1H-1,2,3-triazol-5-yl]methoxy}-6-(pyridine-4-carbonyl)-5,6,7,8-tetrahydro-1,6-naphthyridine] | 14 |
| Cc1nnn(-c2ccc(F)cc2)c1COc1ccc2c(n1)CCN(C(=O)C1CCCOC1)C2 (stereo not drawn) [Example 30, 2-{[1-(4-fluorophenyl)-4-methyl-1H-1,2,3-triazol-5-yl]methoxy}-6-(oxane-3-carbonyl)-5,6,7,8-tetrahydro-1,6-naphthyridine] | 82 |

More lines, now with the values ahead:

| Ki [nM] | SMILES |
| --- | --- |
| 1.2 | CC(=O)N1Cc2ccc(OCc3c(C)nnn3-c3ccc(Cl)cc3)nc2C1 [Example 60, 1-(2-{[1-(4-chlorophenyl)-4-methyl-1H-1,2,3-triazol-5-yl]methoxy}-5,7-dihydro-6H-pyrrolo[3,4-b]pyridin-6-yl)ethanone] |
| 9.5 | Cc1nnn(-c2ccc(F)cc2)c1COc1ccc2c(n1)CN(C(=O)C1CCCOC1)C2 (stereo not drawn) [Example 63, 1-(4-fluorophenyl)-4-methyl-5-({[6-(oxane-3-carbonyl)-5H,6H,7H-pyrrolo[3,4-b]pyridin-2-yl]oxy}methyl)-1H-1,2,3-triazole] |
| 8.9 | Cc1onc(-c2ccc(F)cc2)c1COc1ccc2c(n1)CCN(C(=O)N1CCCC1)C2 [Example 84, 2-{[3-(4-fluorophenyl)-5-methyl-1,2-oxazol-4-yl]methoxy}-6-(pyrrolidine-1-carbonyl)-5,6,7,8-tetrahydro-1,6-naphthyridine] |
| 13 | Cc1nnn(-c2ccc(F)cc2)c1COc1ccc2c(n1)CN(C(=O)C(C)C)C2 [Example 58, 1-(2-{[1-(4-fluorophenyl)-4-methyl-1H-1,2,3-triazol-5-yl]methoxy}-5H,6H,7H-pyrrolo[3,4-b]pyridin-6-yl)-2-methylpropan-1-one] |
| 11 | Cc1nnn(-c2ccc(F)cc2)c1COc1ccc2c(n1)CN(C(=O)C(F)F)C2 [Example 53, 2,2-difluoro-1-(2-{[1-(4-fluorophenyl)-4-methyl-1H-1,2,3-triazol-5-yl]methoxy}-5,7-dihydro-6H-pyrrolo[3,4-b]pyridin-6-yl)ethanone] |
| 25 | CCC(=O)N1Cc2ccc(OCc3c(-c4ccc(F)cc4)nnn3C)nc2C1 [Example 69, 1-(2-{[4-(4-fluorophenyl)-1-methyl-1H-1,2,3-triazol-5-yl]methoxy}-5,7-dihydro-6H-pyrrolo[3,4-b]pyridin-6-yl)propan-1-one] |
| 59 | Cc1nnn(-c2ccc(F)cc2)c1COc1ccc2c(n1)CN(C(=O)c1ccccn1)C2 [Example 66, 2-(2-{[1-(4-fluorophenyl)-4-methyl-1H-1,2,3-triazol-5-yl]methoxy}-5H,6H,7H-pyrrolo[3,4-b]pyridine-6-carbonyl)pyridine] |
| 14 | Cc1nnn(-c2ccc(F)cc2)c1COc1ccc2c(n1)CN(C(=O)C1CCC1)C2 [Example 57, 5-[({6-cyclobutanecarbonyl-5H,6H,7H-pyrrolo[3,4-b]pyridin-2-yl}oxy)methyl]-1-(4-fluorophenyl)-4-methyl-1H-1,2,3-triazole] |
| 66 | Cc1nnn(-c2ccc(F)cc2)c1COc1ccc2c(n1)CCN(C(=O)N1CCCC1)C2 [Example 77, 2-{[1-(4-fluorophenyl)-4-methyl-1H-1,2,3-triazol-5-yl]methoxy}-6-(pyrrolidine-1-carbonyl)-5,6,7,8-tetrahydro-1,6-naphthyridine] |
| 6.5 | Cc1onc(-c2ccc(F)cc2)c1COc1ccc2c(n1)CCN(C(=O)NC1CCOC1)C2 (stereo not drawn) [Example 86, 2-{[3-(4-fluorophenyl)-5-methyl-1,2-oxazol-4-yl]methoxy}-N-(oxolan-3-yl)-5,6,7,8-tetrahydro-1,6-naphthyridine-6-carboxamide] |
